Laboratory results: patent US8492349B2, “Analgesia with minimal tolerance and dependence by a mu opioid receptor agonist that also binds filamin A” (Pain Therapeutics, Inc., priority 2007, dated 2013)
Like-named read-outs stand apart in the source and are kept apart here.

How the values were obtained:
MOR-Gs coupling [1] = experiment: Chronic morphine-induced MOR Go-to-Gs coupling switch in organotypic striatal slice cultures; assay type: cell-based, rat; details: for effect on NLX-mediated prevention of cellular indices of morphine tolerance (Go-to-Gs switch and cAMP): 10 μM peptide added to morphine plus 10 pM NLX
Procedure: For determination of MOR-G protein coupling, slices were homogenated to generate synaptic membranes. […] Following centrifugation, striatal membrane lysates were immunoprecipitated with immobilized anti-Gαs/olf or -Gαo conjugated with immobilized protein G-agarose beads. The level of MOR in anti-Gαs/olf or -Gαo immunoprecipitates was determined by Western blotting using specific anti-MOR antibodies.

MOR-Gs coupling [2] = experiment: Acute morphine-induced MOR Go-to-Gs coupling switch in organotypic striatal slice cultures; assay type: cell-based, rat; details: for effect on acute morphine-induced coupling switch by MOR: pre-treatment 10 μM peptide
Procedure: Tissues were harvested 5, 15 or 60 minutes after the drug exposure by centrifugation. For determination of MOR-G protein coupling, slices were homogenated to generate synaptic membranes and cytosolic fractions. Synaptic membranes (400 μg) were then solubilized with 0.5% digitonin/0.2% sodium cholate/0.5% NP-40 in 250 μl of immunoprecipitation buffer (25 mM HEPES, pH 7.5; 200 mM NaCl, 1 mM EDTA, 50 μg/ml leupeptin, 10 μg/ml aprotinin, 2 μg/ml soybean trypsin inhibitor, 0.04 mM PMSF and mixture of protein phosphatase inhibitors). Following centrifugation, striatal membrane lysates were immunoprecipitated with immobilized anti-Gαs/olf or -Gαo (Santa Cruz) conjugated with immobilized protein A-agarose beads (Pierce-Endogen). The level of MOR in anti-Gαs/olf or -Gαo immunoprecipitates was determined by Western blotting using specific anti-MOR antibodies.

pS133-CREB = experiment: Acute morphine-induced CREB S133 phosphorylation in organotypic striatal slice cultures; assay type: cell-based, rat; details: for pS133CREB detection, treatment alone: without morphine; for pS133CREB level in striatal tissue: 100 μM
Procedure: CREB in the solubilized cytosol and nucleus was immunoprecipitated with an anti-CREB antibody (Santa Cruz) and the level of pS^133-CREB was then determined by Western blotting using a specific antibody directed against pS^133-CREB (Santa Cruz).

purified human FLNA = molecular target: T1, purified human FLNA (Homo sapiens, UniProt P21333); experiment: [3H]NLX binding to immunopurified FLNA; details: for attenuation of [3H]NLX binding to purified human FLNA: 10 μM peptide, 500 pM [3H]NLX
T1 construct: made in house
T1 sequence (P21333 whole entry): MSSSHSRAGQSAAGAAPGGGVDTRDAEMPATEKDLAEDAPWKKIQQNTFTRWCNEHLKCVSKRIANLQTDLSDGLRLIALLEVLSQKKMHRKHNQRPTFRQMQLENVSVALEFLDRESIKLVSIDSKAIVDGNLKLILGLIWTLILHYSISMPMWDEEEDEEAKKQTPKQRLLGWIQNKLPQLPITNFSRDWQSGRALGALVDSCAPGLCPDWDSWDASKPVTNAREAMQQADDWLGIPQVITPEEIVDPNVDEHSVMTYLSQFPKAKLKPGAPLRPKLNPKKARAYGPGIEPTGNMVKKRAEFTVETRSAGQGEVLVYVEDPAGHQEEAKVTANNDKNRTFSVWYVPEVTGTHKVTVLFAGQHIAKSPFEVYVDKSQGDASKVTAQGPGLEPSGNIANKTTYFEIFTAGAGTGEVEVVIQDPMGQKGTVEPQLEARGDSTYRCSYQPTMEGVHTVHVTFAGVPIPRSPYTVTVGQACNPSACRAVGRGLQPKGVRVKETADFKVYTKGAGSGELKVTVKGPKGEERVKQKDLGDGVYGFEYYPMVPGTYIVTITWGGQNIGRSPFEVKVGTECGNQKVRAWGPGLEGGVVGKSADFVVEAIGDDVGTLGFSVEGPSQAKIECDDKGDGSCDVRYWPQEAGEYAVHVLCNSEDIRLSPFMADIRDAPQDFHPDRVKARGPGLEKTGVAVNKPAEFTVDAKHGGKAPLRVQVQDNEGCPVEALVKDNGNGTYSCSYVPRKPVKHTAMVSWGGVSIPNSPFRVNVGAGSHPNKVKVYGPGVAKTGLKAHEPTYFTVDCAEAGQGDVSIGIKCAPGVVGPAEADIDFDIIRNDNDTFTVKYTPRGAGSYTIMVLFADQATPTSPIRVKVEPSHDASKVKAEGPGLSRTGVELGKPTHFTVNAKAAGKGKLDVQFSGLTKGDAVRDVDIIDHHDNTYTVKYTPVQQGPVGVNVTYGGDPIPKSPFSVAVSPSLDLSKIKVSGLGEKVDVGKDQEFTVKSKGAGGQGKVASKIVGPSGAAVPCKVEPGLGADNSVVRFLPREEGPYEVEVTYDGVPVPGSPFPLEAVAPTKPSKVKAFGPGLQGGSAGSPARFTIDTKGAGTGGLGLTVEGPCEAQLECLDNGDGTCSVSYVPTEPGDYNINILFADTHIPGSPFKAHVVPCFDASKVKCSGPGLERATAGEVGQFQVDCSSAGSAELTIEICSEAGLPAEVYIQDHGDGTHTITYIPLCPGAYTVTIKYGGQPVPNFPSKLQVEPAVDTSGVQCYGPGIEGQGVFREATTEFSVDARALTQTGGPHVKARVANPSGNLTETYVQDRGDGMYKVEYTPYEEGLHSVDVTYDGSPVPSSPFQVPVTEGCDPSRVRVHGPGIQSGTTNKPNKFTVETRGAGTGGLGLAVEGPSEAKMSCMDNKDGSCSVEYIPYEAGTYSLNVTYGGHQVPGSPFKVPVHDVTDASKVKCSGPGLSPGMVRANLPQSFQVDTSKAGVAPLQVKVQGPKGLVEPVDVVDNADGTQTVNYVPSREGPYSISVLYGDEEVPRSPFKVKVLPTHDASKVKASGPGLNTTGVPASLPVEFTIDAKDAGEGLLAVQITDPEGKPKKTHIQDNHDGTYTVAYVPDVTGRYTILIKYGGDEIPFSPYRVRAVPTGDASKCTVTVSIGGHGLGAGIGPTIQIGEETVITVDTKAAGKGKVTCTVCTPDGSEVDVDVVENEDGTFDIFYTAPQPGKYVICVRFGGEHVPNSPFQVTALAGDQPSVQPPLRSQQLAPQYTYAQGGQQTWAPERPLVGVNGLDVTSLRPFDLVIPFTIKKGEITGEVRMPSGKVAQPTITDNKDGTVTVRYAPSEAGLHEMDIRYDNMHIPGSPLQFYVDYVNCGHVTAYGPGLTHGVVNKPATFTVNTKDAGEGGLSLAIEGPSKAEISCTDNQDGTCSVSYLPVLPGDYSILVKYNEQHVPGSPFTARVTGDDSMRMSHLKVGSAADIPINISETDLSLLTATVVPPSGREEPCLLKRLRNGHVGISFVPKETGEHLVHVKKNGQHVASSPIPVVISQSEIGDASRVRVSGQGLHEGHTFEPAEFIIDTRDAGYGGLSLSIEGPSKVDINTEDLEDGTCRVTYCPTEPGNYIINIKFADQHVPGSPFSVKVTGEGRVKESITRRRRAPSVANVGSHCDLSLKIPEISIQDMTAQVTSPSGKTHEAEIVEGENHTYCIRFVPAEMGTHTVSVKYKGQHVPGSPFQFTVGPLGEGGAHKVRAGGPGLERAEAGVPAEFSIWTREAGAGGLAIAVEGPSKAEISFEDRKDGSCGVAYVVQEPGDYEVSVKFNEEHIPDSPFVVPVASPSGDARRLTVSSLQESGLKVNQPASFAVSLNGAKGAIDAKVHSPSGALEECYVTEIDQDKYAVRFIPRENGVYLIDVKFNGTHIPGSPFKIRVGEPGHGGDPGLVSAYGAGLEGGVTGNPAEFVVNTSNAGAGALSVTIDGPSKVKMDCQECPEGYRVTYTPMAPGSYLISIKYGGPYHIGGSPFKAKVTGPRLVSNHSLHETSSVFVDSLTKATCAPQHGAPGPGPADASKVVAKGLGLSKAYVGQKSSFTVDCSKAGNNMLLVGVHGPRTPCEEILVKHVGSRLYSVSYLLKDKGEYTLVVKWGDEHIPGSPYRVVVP
Procedure: (§1) To determine the NLX binding site on FLNA, various overlapping peptides encoding the c-terminal section of FLNA were used to compete for [^3H]NLX binding to FLNA using either A7 cell membranes or purified FLNA from A7 or SK-N-MC cells. Peptides were prepared by Sigma-Genosys (The Woodlands, Tex.). The reaction mixture consisted of 100 μg A7 membranes or 2 μg purified FLNA, 500 pM [^3H]NLX, and 10 μM of either FLNA2550-2560, FLNA2556-2565, FLNA2561-2570, FLNA2566-2575 or FLNA2576-2581 in 500 μl binding medium. The reaction was carried out at 37° C. for 30 minutes and terminated by rapid filtration through GF/B membranes under vacuum. The filters were washed twice with 5 ml ice-cold binding medium, and [^3H]NLX retained on the filters was measured by liquid, scintillation spectrometry.

[3] = molecular target: T2, FLNA in A7 cell membranes (Homo sapiens, UniProt P21333); experiment: [3H]NLX binding to membranes from FLNA-expressing A7 cells (competition); details: for attenuation of [3H]NLX binding to A7 cell membranes: 10 μM peptide, 500 pM [3H]NLX; for displacement of [3H]NLX binding to A7 membranes: FIG. 3a
T2 construct: expressed in transfected cells; host or cells: A7, a subclone of human melanoma M2, stably transfected with human FLNA cDNA; membranes
T2 sequence (P21333 whole entry): as above
Procedure: To confirm FLNA as the high-affinity target of NLX, [^3H]NLX binding to the human melanoma cell line M2 and its subclone A7 was assessed. The M2 subclone lacks FLNA and MOR and its subclone A7 is stably transfected with human FLNA cDNA (obtained from Drs. Stossel and Ohta at Harvard Medical School).
Membranes prepared from A7 cells (50 μg) were incubated in binding medium consisting of 50 mM Tris HCl, pH 7.5; 100 mM NaCl; and protease and protein phosphatase inhibitors with 500 pM [^3H]NLX for 30 minutes at 37° C. Total incubation volume was 500 μl. Non-specific binding was defined by 1 μM NTX. […] Reactions were terminated by, rapid filtration through GF/B membranes under vacuum. The filters were washed twice with 5 ml ice-cold binding medium, and [^3H]NLX retained on the filters was measured by liquid scintillation spectrometry.
as §1
To determine the essential amino acid residue(s) within the NLX-interacting pentapeptide, four additional pentapeptides, each with one amino acid residue replaced by alanine, were used along with the correct FLNA2561-2565 pentapeptide to compete for [^3H]NLX binding to FLNA using 100 μg A7 cell membranes. Peptides were generated by Sigma-Genosys. The reaction mixture consisted of 500 pM [^3H]NLX, 100 μg A7 membranes, and 10 μM pentapeptide [AAKGL, (SEQ ID NO:13); VAKGL (SEQ ID NO:14); VAAGL (SEQ ID NO:12); VAKAL (SEQ ID NO:15) or VAKGA (SEQ ID NO:16)] in 500 μl binding medium. The reaction was conducted at 37° C. for 30 minutes and terminated by rapid filtration through GF/B membranes under reduced pressure. The filters were washed twice with 5 ml ice-cold binding medium, and [^3H]NLX retained on the filters was measured by liquid scintillation spectrometry.

MOR = experiment: Stimulation of MOR screen; assay type: biochemical
Excerpt: In that Table, the log P value is the logarithm of a compound's partition coefficient between n-octanol and water [log(coctanol/cwater)], and is a well established measure of the compound's […]. “C Log P” shown in the Table is a calculated Log P value that is obtained using a program copyrighted (1988-2008) by Pomona College and BioByte, Inc. of Claremont, Calif.

[4] = tested on: other Go-coupled receptors; experiment: Stimulation of other Go-coupled receptors; assay type: biochemical; details: 0.1 μM screen
FLNA = FLNA (Homo sapiens, UniProt P21333); experiment: FLNA binding affinity screen
Sequence of FLNA (P21333 whole entry): as above

[5] = cited from earlier work
[6] = pre-treatment 10 μM peptide, 100 μM morphine
[7] = co-treatment 100 pM with 100 μM morphine

Procedure for cAMP accumulation: Tissues were homogenized by sonication and protein precipitated with 1M TCA. The supernatant obtained after centrifugation was neutralized using 50 mM Tris, pH 9.0. The level of cAMP in the brain lysate was measured by a cAMP assay kit (PerkinElmer Life Science, Boston) according to manufacturer's instructions.

FLNA2566-2575: overlapping peptide encoding the c-terminal section of FLNA (GLSKAYVGQK; UniProt P21333 2566-2575, looked up, fragment)
effect on NLX-mediated prevention of cellular indices of morphine tolerance (Go-to-Gs switch and cAMP) (MOR-Gs coupling [1]): not

VAKGL (SEQ ID NO:14) [decoy pentapeptide]
effect on acute morphine-induced coupling switch by MOR (MOR-Gs coupling [2]; 100 μM morphine): completely prevented
effect on acute morphine-induced pS133CREB signal (pS133-CREB; [6]): virtually abolished

FLNA2561-2570: overlapping peptide encoding the c-terminal section of FLNA (VAKGLGLSKA; UniProt P21333 2561-2570, looked up, fragment)
effect on NLX-mediated prevention of cellular indices of morphine tolerance (Go-to-Gs switch and cAMP) (MOR-Gs coupling [1]): abolished
attenuation of [3H]NLX binding to purified human FLNA (purified human FLNA): markedly attenuated
attenuation of [3H]NLX binding to A7 cell membranes [3]: markedly attenuated

FLNA2556-2565: overlapping peptide encoding the c-terminal section of FLNA (DASKVVAKGL; UniProt P21333 2556-2565, looked up, fragment)
attenuation of [3H]NLX binding to purified human FLNA (purified human FLNA): markedly attenuated
attenuation of [3H]NLX binding to A7 cell membranes [3]: markedly attenuated

COC(OC)C12CCC(=O)C=C1CCC1C3CCC(OC(C)=O)C3(C)CCC12 (stereo not shown) [Compound 1]
Stimulation of MOR at (at 0.1 μM) (MOR): 79%
Stimulation of other Go-coupled receptors [4]: 19%

COc1ccccc1CC(=O)CC1c2c(cc3c(c2OC)OCO3)CC[N+]1(C)C (stereo not shown) [Compound 6]
Stimulation of MOR at (at 0.1 μM) (MOR): 91%
Stimulation of other Go-coupled receptors [4]: 23%

COc1ccc(C(=O)CC2c3c(cc4c(c3OC)OCO4)CC[N+]2(C)C)c(OC)c1 (stereo not shown) [Compound 7]
Stimulation of MOR at (at 0.1 μM) (MOR): 64%
Kd (FLNA; read-out: FLNA affinity): 2.86 pM
Stimulation of other Go-coupled receptors [4]: 21%

O=C1CC[C@@]2(O)[C@H]3Cc4ccc(O)c5c4[C@@]2(CCN3CC2CC2)[C@H]1O5 [Naltrexone, naltrexone]
effect on acute morphine-induced G protein coupling switch by MOR (MOR-Gs coupling [2]; [7]): prevented
effect on MOR coupling alone (MOR-Gs coupling [2]; without morphine): had no effect
Kd (FLNA): 3.9 pM
effect on acute rewarding effects of oxycodone ([5]; 3 ng/kg): without effect
effect on acute rewarding effects of oxycodone ([5]; 0.03, 0.3 and 30 ng/kg): blocked
displacement of [3H]NLX binding to A7 membranes [3]: robustly displaced
IC50 ([3]; competition curve, 16 concentrations 0.2 pM to 1 μM, FIG. 4, read-out: IC50 for inhibition of [3H]NLX binding to membranes from FLNA-expressing A7 cells): 0.043 nM
effect on acute morphine-induced pS133CREB signal (pS133-CREB; [7]): virtually abolished
pS133CREB detection, treatment alone (pS133-CREB): did not result in pS^133CREB detection

FLNA2550-2560: overlapping peptide encoding the c-terminal section of FLNA (PGPGPADASKV; UniProt P21333 2550-2560, looked up, fragment)
effect on NLX-mediated prevention of cellular indices of morphine tolerance (Go-to-Gs switch and cAMP) (MOR-Gs coupling [1]): not

COc1ccc(S(=O)(=O)N2CCC3(CC2)OCCN3S(=O)(=O)c2ccc(OC)cc2)cc1 [Compound 5]
Stimulation of MOR at (at 0.1 μM) (MOR): 91%
Kd (FLNA; read-out: FLNA affinity): 8.65 pM
Stimulation of other Go-coupled receptors [4]: 11%

C=CCN1CC[C@]23c4c5ccc(O)c4O[C@H]2C(=O)CC[C@@]3(O)[C@H]1C5 [Naloxone, naloxone]
Kd (purified human FLNA; read-out: binding affinity for immunopurified FLNA): ~0.043 nM
effect on acute morphine-induced pS133CREB signal (pS133-CREB; [7]): virtually abolished
pS133CREB detection, treatment alone (pS133-CREB): did not result in pS^133CREB detection
effect on chronic morphine-induced attenuation of the DAMGO-induced reduction in cAMP production (cAMP accumulation; 10 pM with 100 μM morphine): blocked

CN1CC[C@]23c4c5ccc(O)c4O[C@H]2[C@@H](O)C=C[C@H]3[C@H]1C5 [morphine]
Go-to-Gs coupling switch by MOR after chronic treatment (MOR-Gs coupling [1]; 100 μM, 1 hour twice daily for 7 days): induced a robust Go-to-Gs coupling switch
displacement of [3H]NLX binding to A7 membranes [3]: not
pS133CREB level in striatal tissue (pS133-CREB; after 5 and 15 minutes of exposure): robust level
pS133CREB level in striatal tissue (pS133-CREB; after 1 hour of exposure): only a residual level
effect on DAMGO-mediated reduction in cAMP accumulation (cAMP accumulation; chronic 100 μM treatment): attenuated

C[C@@H]1CCC2[C@]3(C)COC(C)(C)OC3CC[C@@]2(C)C12CCC(CO)(CCO)O2 (stereo partly shown) [Compound 2]
Stimulation of MOR at (at 0.1 μM) (MOR): 67%
Stimulation of other Go-coupled receptors [4]: 11%

VAAGL (SEQ ID NO:12) [control peptide, FLNA2561-2565 withone mid-point alanine substitution]
Go coupling at 15 minutes (MOR-Gs coupling [2]; 10 μM peptide, 100 μM morphine, 15 minutes): mildly preserved
effect on acute morphine-induced coupling switch by MOR (MOR-Gs coupling [2]; 100 μM morphine): did not prevent
effect on acute morphine-induced pS133CREB signal (pS133-CREB; [6]): did not significantly diminish

C[C@@H](NC(=O)[C@@H](N)Cc1ccc(O)cc1)C(=O)NCC(=O)N(C)[C@@H](Cc1ccccc1)C(=O)NCCO [DAMGO]
Stimulation of MOR at (at 0.1 μM) (MOR): 92%
Stimulation of other Go-coupled receptors [4]: 6%

COc1cc(CCC(O)CC2c3c(cc4c(c3OC)OCO4)CCN2C)ccc1O (stereo not shown) [Compound 3]
Stimulation of MOR at (at 0.1 μM) (MOR): 78%
Stimulation of other Go-coupled receptors [4]: 16%
